According to US5663344A, “Method for the synthesis of huperzine A and analogs thereof and compounds useful therein” (Mayo Foundation for Medical Education and Research, priority 1994, dated 1997):

Molecular target: T1, acetylcholinesterase (Rattus norvegicus, UniProt P37136)
T1 construct: synaptosome-rich fraction containing endogenous acetylcholinesterase enzyme; from tissue; host or cells: rat cerebral cortex, synaptosome-rich fraction (Whittaker's P2 fraction: synaptosomes and mitochondria)
T1 sequence (P37136 32-614): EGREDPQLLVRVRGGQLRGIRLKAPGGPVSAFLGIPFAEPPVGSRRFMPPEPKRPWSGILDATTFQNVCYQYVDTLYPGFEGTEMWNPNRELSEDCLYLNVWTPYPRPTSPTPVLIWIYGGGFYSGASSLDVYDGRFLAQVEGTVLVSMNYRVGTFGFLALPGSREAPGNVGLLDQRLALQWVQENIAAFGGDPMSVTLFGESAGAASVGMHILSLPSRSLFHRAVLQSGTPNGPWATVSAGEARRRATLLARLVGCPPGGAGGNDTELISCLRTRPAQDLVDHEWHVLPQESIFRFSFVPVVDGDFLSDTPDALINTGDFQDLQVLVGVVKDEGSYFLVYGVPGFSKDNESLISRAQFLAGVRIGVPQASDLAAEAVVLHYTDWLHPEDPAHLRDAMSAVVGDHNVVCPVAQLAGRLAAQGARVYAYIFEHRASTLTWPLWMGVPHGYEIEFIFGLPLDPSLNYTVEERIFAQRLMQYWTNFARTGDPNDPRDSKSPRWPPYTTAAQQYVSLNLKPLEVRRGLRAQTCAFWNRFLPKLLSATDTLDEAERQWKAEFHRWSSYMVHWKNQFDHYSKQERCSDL
Assay: Inhibition of acetylcholinesterase in rat cortex synaptosome-rich fraction (hydrolysis of labelled acetylcholine)
Format: biochemical
Description: Rats were killed by decapitation and the brains were rapidly extirpated. The cortex was dissected out on ice according to the method of Glowinski and Iversen. […] Homogenates were centrifuged at 1000× g for 10 minutes to remove cell nuclei and heavy debris. […] A portion of this synaptosome-rich fraction was added in triplicate to ice-cold pH 7.4 Krebs-Ringer medium.
Assay of acetylcholinesterase was carried out according to the method of Johnson and Russell. See C. […] Acetylcholine labelled in the acetate moiety was enzymatically hydrolyzed by incubation for 10 minutes at room temperature in the presence of the above synaptosome-rich fraction containing endogenous acetylcholinesterase enzyme. The reaction was terminated by addition of a "stopping mixture" containing chloroacetic acid (1.0M), sodium hydroxide (0.5M) and sodium cloride (2.0M) to the reaction vial. Toluene-based scintillation fluid was added to the vial, to extract the released labelled acetate into the organic phase. […] Thus, the sample can be counted directly in the same reaction vial, in which the hydrolysis of sample by acetylcholinesterase has occurred.
Inhibition of cholinesterase activity was estimated, in triplicate, in the presence of a wide range of concentrations (10^-9 to 10^-3 M).

## CCC=C1C2C=C(C)CC1(N)c1ccc(=O)[nH]c1C2 (stereo not drawn) [1-carbon Analog]
Compared with huperzine A
  inhibition of the cholinesterase enzyme (in words): inhibited the cholinesterase enzyme, but to a lesser extent than huperzine A
read-out: IC50 (extent of cholinesterase enzyme inhibition), rat cortex synaptosome-rich fraction, 10 min, room temperature, triplicate, 10^-9 to 10^-3 M
  IC50: 100 µM
Relative to synthesized huperzine A, the smaller this number, the more potent the compound
  IC50 /IC50 of Huperzine A: 166.6
